# Data taken from patent US20130005710A1, “AMINOPYRIDINE DERIVATIVE” (priority 2009, published 2013).
# Tested on: rat mixed glial culture
# Experiment: Neurogenesis promoting effect in rat mixed glial culture (neuronal differentiation, beta-tubulin III ELISA)
# Format: cell-based
# Settings: 1 μM compound + rhIGF-1 100 ng/ml, 3 days; control (only rhIGF-1) = 100%; absorbance 450 nm
# Procedure: The hippocampus and the cerebral cortex were excised from each of 3-day-old SD rats. A cell suspension was prepared therefrom using a neuron dispersion kit (Sumitomo Bakelite Co., Ltd., MB-X9901) and inoculated at concentration of 10^5 cells/well to a 96-well plate coated with type I collagen (AGC Techno Glass Co., Ltd., 4860-010). The cells were cultured in a growth medium (D-MEM/F12 containing 10% FBS and PS) at 37° C. for 4 days under 5% CO2 conditions.
# After the culture, the medium was replaced by a differentiation medium (D-MEM/F12 containing PS), and rhIGF-1 (R&D Systems, 291-G1-250, final concentration: 100 ng/ml) and 1 μM compound were added thereto. The cells were further cultured for 3 days. The cultured cells were fixed in 4% paraformaldehyde-PBS (Muto Pure Chemicals Co., Ltd.), subjected to membrane permeation treatment with 0.1% Triton X-100 PBS, and blocked with Block Ace solution (DS Pharma Biomedical Co., Ltd., UK-B80). Anti-neuron-specific class III beta-tubulin Antibody (R&D Systems, MAB1195, clone Tuj-1) was diluted 1000-fold and used as a primary antibody. Anti-Mouse Ig, HRP-Linked F(ab′)2 Fragment Sheep (GE Healthcare, NA9310) was diluted 10000-fold and used as a secondary antibody. A plate washer (BIO-TEK INSTRUMENTS ELX405) was used in washing operation. TMB Microwell Peroxidase Substrate System (Kirkegaard & Perry Laboratories, 50-76-00) was used in color reaction, which was performed for 10 minutes and stopped by addition of 1 M phosphoric acid. Absorbance at 450 nm was measured using a plate reader (Labsystems Multiskan BICHROMATIC).
# The rate of increase in the absorbance of the compound-supplemented group (compound+rhIGF-1) relative to that of a compound-unsupplemented group (control, only rhIGF-1) as 100% was determined in terms of % control.
row,Compound,Ratio of absorbance of compound-supplemented group to control (%)
1,"COc1ccc(N2CCOC(c3ccc(C(F)(F)F)cc3)C2)c(-c2ccc(N(C)C)cc2)n1 (single isomer, unassigned) [Example 5, 4-(6-methoxy-3-{2-[4-(trifluoromethyl)phenyl]morpholin-4-yl}pyridin-2-yl)-N,N-dimethylaniline]",765%
2,"COc1ccc(N2CCOC(c3ccc(C(F)(F)F)cc3)C2)c(-c2ccc(N(C)C)cc2)n1 (single isomer, unassigned) [Example 6, 4-(6-methoxy-3-{2-[4-(trifluoromethyl)phenyl]morpholin-4-yl}pyridin-2-yl)-N,N-dimethylaniline]",134%

# Same assay, conditions: Rattus norvegicus, 72 h, 1 μM compound + rhIGF-1 100 ng/ml, 3 days; control (only rhIGF-1) = 100%; absorbance 450 nm; read-out: Ratio of absorbance of compound-supplemented group to control (%)
row,Compound,activity at 1 µM
1,"COc1ccc(N2CCOC(c3cccc(C(F)(F)F)c3)C2)c(-c2ccc(N(C)C)cc2)n1 (centres unmarked) [Example 2, 4-(6-methoxy-3-{2-[3-(trifluoromethyl)phenyl]morpholin-4-yl}pyridin-2-yl)-N,N-dimethylaniline]",448%
2,"COc1ccc(C2CN(c3ccc(OC)nc3-c3ccc(N(C)C)cc3)CCO2)cc1 (centres unmarked) [Example 3, 4-{6-methoxy-3-[2-(4-methoxyphenyl)morpholin-4-yl]pyridin-2-yl}-N,N-dimethylaniline]",303%
3,"COc1ccc(N2CCOC(Cc3cccc(C(F)(F)F)c3)C2)c(-c2ccc(N(C)C)cc2)n1 (centres unmarked) [Example 9, 4-(6-methoxy-3-{2-[3-(trifluoromethyl)benzyl]morpholin-4-yl}pyridin-2-yl)-N,N-dimethylaniline]",321%
4,"CCOC(=O)N1CCN(c2ccc(OC)nc2-c2ccc(N(C)C)cc2)CC1c1ccc(OC)cc1 (centres unmarked) [Example 13, Ethyl 4-{2-[4-(dimethylamino)phenyl]-6-methoxypyridin-3-yl}-2-(4-methoxyphenyl)piperazine-1-carboxylate]",285%
5,"COc1ccc(C2CN(c3ccc(OC)nc3-c3ccc(N(C)C)cc3)CCN2)cc1 (centres unmarked) [Example 14, 4-{6-methoxy-3-[3-(4-methoxyphenyl)piperazin-1-yl]pyridin-2-yl}-N,N-dimethylaniline]",260%
6,"COc1ccc(N2CCN(c3ccc(Cl)cc3)CC2)c(-c2ccc(N(C)C)cc2)n1 [Example 24, 4-{3-[4-(4-chlorophenyl)piperazin-1-yl]-6-methoxypyridin-2-yl}-N,N-dimethylaniline]",462%
7,"COc1ccc(N2CCN(c3ccc(OC)c(OC)c3)CC2)c(-c2ccc(N(C)C)cc2)n1 [Example 26, 4-{3-[4-(3,4-dimethoxyphenyl)piperazin-1-yl]-6-methoxypyridin-2-yl}-N,N-dimethylaniline]",259%
8,"COc1ccc(CC2CN(c3ccc(OC)nc3-c3ccc(N(C)C)cc3)CCN2C)cc1 (centres unmarked) [Example 34, 4-{6-methoxy-3-[3-(4-methoxybenzyl)-4-methylpiperazin-1-yl]pyridin-2-yl}-N,N-dimethylaniline]",783%
9,"COc1ccc(N2CCN(c3ccc(OC)nc3-c3ccc(OC(F)(F)F)cc3)CC2)cc1 [Example 49, 1-(4-methoxyphenyl)-4-{6-methoxy-2-[4-(trifluoromethoxy)phenyl]pyridin-3-yl}piperazine]",887%
10,"COc1ccc(-c2nc(OC)ccc2N2CCN(c3ccc(OC)cc3)CC2)cc1 [Example 50, 1-[6-methoxy-2-(4-methoxyphenyl)pyridin-3-yl]-4-(4-methoxyphenyl)piperazine]",546%
11,"COc1ccc(N2CCN(c3ccc(OC)nc3-c3ccc(C(C)C)cc3)CC2)cc1 [Example 51, 1-{6-methoxy-2-[4-(1-methylethyl)phenyl]pyridin-3-yl}-4-(4-methoxyphenyl)piperazine]",856%
12,"COc1ccc(N2CCN(c3ccc(OC)nc3-c3ccc(OC(C)C)cc3)CC2)cc1 [Example 52, 1-{6-methoxy-2-[4-(1-methylethoxy)phenyl]pyridin-3-yl}-4-(4-methoxyphenyl)piperazine]",731%
13,"COc1ccc(N2CCN(c3ccc(OC)nc3-c3ccc4c(c3)CC(C)(C)O4)CC2)cc1 [Example 60, 1-[2-(2,2-dimethyl-2,3-dihydro-1-benzofuran-5-yl)-6-methoxypyridin-3-yl]-4-(4-methoxyphenyl)piperazine]",218%
14,"CCOc1ccc(-c2nc(OC)ccc2N2CCN(c3ccc(OC)cc3)CC2)cc1F [Example 62, 1-[2-(4-ethoxy-3-fluorophenyl)-6-methoxypyridin-3-yl]-4-(4-methoxyphenyl)piperazine]",439%
15,"COc1ccc(C2(O)CCN(c3ccc(OC)nc3-c3ccc(OC(F)(F)F)cc3)CC2)cc1 [Example 75, 4-(4-methoxyphenyl)-1-{6-methoxy-2-[4-(trifluoromethoxy)phenyl]pyridin-3-yl}piperidin-4-ol]",249%
16,"COc1ccc(N2CCCN(c3ccc(OC)nc3-c3ccc(N(C)C)cc3)CC2)cc1 [Example 85, 4-{6-methoxy-3-[4-(4-methoxyphenyl)-1,4-diazepan-1-yl]pyridin-2-yl}-N,N-dimethylaniline]",385%
17,"COc1ccc(N2CCCN(c3ccc(OC)nc3-c3ccc(N(C)C)cc3)CC2)c(F)c1 [Example 87, 4-{3-[4-(2-fluoro-4-methoxyphenyl)-1,4-diazepan-1-yl]-6-methoxypyridin-2-yl}-N,N-dimethylaniline]",224%
18,"COc1ccc(N2CCCN(c3ccc(OC)c(OC)c3)CC2)c(-c2ccc(N(C)C)cc2)n1 [Example 89, 4-{3-[4-(3,4-dimethoxyphenyl)-1,4-diazepan-1-yl]-6-methoxypyridin-2-yl}-N,N-dimethylaniline]",379%
19,"COc1ccc(N2CCN(c3ccc(OC)nc3-c3ccc(N(C)C)cc3)CCC2=O)cc1 [Example 92, 1-{2-[4-(dimethylamino)phenyl]-6-methoxypyridin-3-yl}-4-(4-methoxyphenyl)-1,4-diazepan-5-one]",449%
20,"COc1ccc(C2CCN(c3ccc(OC)nc3-c3ccc(N(C)C)cc3)CCN2C)cc1 (centres unmarked) [Example 98, 4-{6-methoxy-3-[5-(4-methoxyphenyl)-4-methyl-1,4-diazepan-1-yl]pyridin-2-yl}-N,N-dimethylaniline]",397%
21,"CCOc1ccc(-c2nc(OC)ccc2N2CCC(c3ccc(OC)cc3)N(CC)CC2)cc1 (centres unmarked) [Example 108, 1-[2-(4-ethoxyphenyl)-6-methoxypyridin-3-yl]-4-ethyl-5-(4-methoxyphenyl)-1,4-diazepane]",773%
22,"CCOc1ccc(-c2nc(OC)ccc2N2CCN(c3ccc(OC)cc3)CC2)c(F)c1 [Example 113, 1-[2-(4-ethoxy-2-fluorophenyl)-6-methoxypyridin-3-yl]-4-(4-methoxyphenyl)piperazine]",717%
23,"COc1ccc(N2CCN(c3ccc(OC)nc3-c3ccc(N(C)C)cc3)CC(C)C2=O)cc1 (centres unmarked) [Example 118, 1-{2-[4-(dimethylamino)phenyl]-6-methoxypyridin-3-yl}-4-(4-methoxyphenyl)-6-methyl-1,4-diazepan-5-one]",528%
24,"COc1ccc(N2CCN(c3ccc(OC)nc3-c3ccc(N(C)C)cc3)CC(C)(C)C2)cc1 [Example 119, 4-{6-methoxy-3-[4-(4-methoxyphenyl)-6,6-dimethyl-1,4-diazepan-1-yl]pyridin-2-yl}-N,N-dimethylaniline]",760%
25,"COc1ccc(N2CCN(c3ccc(OC)nc3-c3ccc(N(C)C)cc3)CCC2C)cc1 (centres unmarked) [Example 134, 4-{6-methoxy-3-[4-(4-methoxyphenyl)-5-methyl-1,4-diazepan-1-yl]pyridin-2-yl}-N,N-dimethylaniline]",630%
26,"COc1ccc(N2CCN(c3c(C)cc(OC)nc3-c3ccc(N(C)C)cc3)CC2)cc1 [Example 159, 4-{6-methoxy-3-[4-(4-methoxyphenyl)piperazin-1-yl]-4-methylpyridin-2-yl}-N,N-dimethylaniline]",611%
27,"COc1ccc(N2CCN(c3ccc(OC)nc3-c3ccoc3)CC2)cc1 [Example 160, 1-(2-furan-3-yl-6-methoxypyridin-3-yl)-4-(4-methoxyphenyl)piperazine]",220%
28,"CCOc1ccc(-c2nc(OC)cc(C)c2N2CCN(c3ccc(OC)cc3)CC2)cn1 [Example 168, 6′-ethoxy-6-methoxy-3-[4-(4-methoxyphenyl)piperazin-1-yl]-4-methyl-2,3′-bipyridine]",584%
29,"COc1ccc(N2CCN(c3ccc(OC)nc3-c3cnn(C)c3)CC2)cc1 [Example 169, 1-[6-methoxy-2-(1-methyl-1H-pyrazol-4-yl)pyridin-3-yl]-4-(4-methoxyphenyl)piperazine]",255%
30,"COc1ccc(N2CCN(c3ccc(OC)nc3-c3ccc4c(cnn4C)c3)CC2)cc1 [Example 171, 5-{6-methoxy-3-[4-(4-methoxyphenyl)piperazin-1-yl]pyridin-2-yl}-1-methyl-1H-indazole]",312%
